Reference: patent US10125100B2, “Kinase inhibitors” (Respivert Limited, priority 2014, dated 2018)

Columns and labels:
mitosis in PBMCs = test: (g) Cell mitosis assay; format: cell-based; details: Homo sapiens, PBMC, 5 μg/mL
Procedure: Peripheral blood mononucleocytes (PBMCs) from healthy subjects are separated from whole blood (Quintiles, London, UK) using a density gradient (Histopaque®-1077, Sigma-Aldrich, Poole, UK). The PBMCs (3 million cells per sample) are subsequently treated with 2% PHA (phytohaemagglutinin, Sigma-Aldrich, Poole, UK) for 48 hr, followed by a 20 hr exposure to varying concentrations of test compounds. At 2 hr before collection, PBMCs are treated with demecolcine (0.1 μg/mL; Invitrogen, Paisley, UK) to arrest cells in metaphase. To observe mitotic cells, PBMCs are permeabilized and fixed by adding Intraprep (50 μL; Beckman Coulter, France), and stained with anti-phospho-histone 3 ([…]; #9701; Cell Signalling, Danvers, Mass.) and propidium iodide (1 mg/mL; Sigma-Aldrich, Poole, UK) as previously described (Muehlbauer P. A. and Schuler M. J., Mutation Research, 2003, 537:117-130). Fluorescence is observed using an ATTUNE flow cytometer (Invitrogen, Paisley, UK), gating for lymphocytes.

p38 MAPKα (MAPK14) = p38 MAPKα (MAPK14) (Homo sapiens (Human), UniProt Q16539); test: p38 MAPKα enzyme inhibition (Method 2), Z-LYTE FRET; format: biochemical
Sequence of p38 MAPKα (MAPK14) (Q16539 whole entry): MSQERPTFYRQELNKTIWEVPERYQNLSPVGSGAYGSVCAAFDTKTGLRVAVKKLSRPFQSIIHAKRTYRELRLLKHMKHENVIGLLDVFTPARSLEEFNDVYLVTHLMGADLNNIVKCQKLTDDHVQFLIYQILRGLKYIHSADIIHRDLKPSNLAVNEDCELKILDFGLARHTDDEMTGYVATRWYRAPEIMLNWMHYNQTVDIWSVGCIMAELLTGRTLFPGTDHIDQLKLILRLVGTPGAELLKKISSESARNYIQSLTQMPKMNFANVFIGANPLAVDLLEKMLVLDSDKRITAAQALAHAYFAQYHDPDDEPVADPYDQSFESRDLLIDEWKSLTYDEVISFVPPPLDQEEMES
Procedure: (§1) The enzyme inhibitory activities of compounds disclosed herein are determined by FRET using synthetic peptides labelled with both donor and acceptor fluorophores (Z-LYTE, Invitrogen Ltd., Paisley, UK).
The following two assay variants can be used for determination of p38 MAPKα inhibition.
The inhibitory activities of test compounds against the p38 MAPKα isoform (MAPK14: Invitrogen) are evaluated indirectly by determining the level of activation/phosphorylation of the down-stream molecule, MAPKAP-K2. The p38 MAPKα protein (80 ng/mL, 2.5 μL) is mixed with the test compound (2.5 μL of either 4 μg/mL, 0.4 μg/mL, 0.04 μg/mL or 0.004 μg/mL) for 2 hr at RT. […] The mixture is incubated for 1 hr at RT. Development reagent (protease, 5 μL) is added for 1 hr prior to detection in a fluorescence microplate reader (Varioskan® Flash, ThermoFisher Scientific).
This method follows the same steps as Method 1 above, but utilises a higher concentration of the p38 MAPKα protein (2.5 μL of 200 ng/mL protein instead of 2.5 μL of 80 ng/mL protein) for mixing with the test compound (tested at either 1 μg/mL, 0.1 μg/mL, 0.01 μg/mL or 0.001 μg/mL).
(§2) In all cases, the site-specific protease cleaves non-phosphorylated peptide only and eliminates the FRET signal. Phosphorylation levels of each reaction are calculated using the ratio of coumarin emission (donor) over fluorescein emission (acceptor), for which high ratios indicate high phosphorylation and low ratios indicate low phosphorylation levels.

c-Src = c-Src (Homo sapiens (Human), UniProt P12931); test: c-Src enzyme inhibition, Z-LYTE FRET; format: biochemical
Sequence of c-Src (P12931 whole entry, looked up): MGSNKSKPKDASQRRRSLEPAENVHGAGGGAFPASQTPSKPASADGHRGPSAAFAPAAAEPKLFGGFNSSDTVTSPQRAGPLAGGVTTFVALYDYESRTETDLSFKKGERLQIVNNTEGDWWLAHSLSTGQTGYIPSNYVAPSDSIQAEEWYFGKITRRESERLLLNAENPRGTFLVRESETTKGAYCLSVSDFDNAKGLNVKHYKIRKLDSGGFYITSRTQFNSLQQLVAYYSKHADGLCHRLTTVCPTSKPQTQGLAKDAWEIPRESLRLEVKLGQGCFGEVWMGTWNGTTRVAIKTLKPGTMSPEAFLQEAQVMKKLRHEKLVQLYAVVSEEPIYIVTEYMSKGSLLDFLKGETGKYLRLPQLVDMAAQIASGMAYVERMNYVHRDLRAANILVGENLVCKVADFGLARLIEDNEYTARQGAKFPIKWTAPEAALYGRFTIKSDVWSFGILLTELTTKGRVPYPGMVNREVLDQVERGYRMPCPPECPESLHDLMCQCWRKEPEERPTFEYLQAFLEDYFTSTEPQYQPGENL
Procedure: as §1
(§3) The inhibitory activities of compounds of the invention against c-Src and Syk enzymes (Invitrogen), are evaluated in a similar fashion to that described hereinabove. The relevant enzyme (3000 ng/mL or 2000 ng/mL respectively, 2.5 μL) is incubated with the test compound (either 1 μg/mL, 0.1 μg/mL, 0.01 μg/mL, or 0.001 μg/mL, 2.5 μL each) for 2 hr at RT. The FRET peptides (8 μM, 2.5 μL), and appropriate ATP solutions (2.5 μL, 800 μM for c-Src, and 60 μM ATP for Syk) are then added to the enzymes/compound mixtures and the mixture incubated for 1 hr. Development reagent (protease, 5 μL) is added for 1 hr prior to detection in a fluorescence microplate reader (Varioskan® Flash, ThermoFisher Scientific).
as §2

Syk = Syk (Homo sapiens (Human), UniProt P43405); test: Syk enzyme inhibition, Z-LYTE FRET; format: biochemical
Procedure: as §1
as §3, with “The” for “The inhibitory activities of compounds of the invention against c-Src and Syk enzymes (Invitrogen), are evaluated in a similar fashion to that described hereinabove. The”
as §2

Jurkat cells = test: (r) Cell cytotoxicity assay; format: cell-based, human; details: 24 hours
Procedure, shortened: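 Viability read by flow cytometry as the fraction of propidium iodide-negative cells (7.5 μg/mL PI, 15 min), relative to 1.0% DMSO control. Beforehand, 1×10^5 Jurkat cells in RPMI/10% FBS were treated 24 h at 37° C., 5% CO2 with test compound at final 20, 5 or 1 μg/mL.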

IC50 (p38 MAPKα (MAPK14)) [nM]	IC50 (c-Src) [nM]	IC50 (Syk) [nM]	Structure (SMILES)	inhibition at 5 µg/mL (mitosis in PBMCs) [%]	% Viability at 1 μg/mL (Jurkat cells) [%]	% Viability at 5 μg/mL (Jurkat cells) [%]	% Viability at 20 μg/mL (Jurkat cells) [%]
4	68	124	COc1c(NC(=O)Nc2ccc(Oc3ccnc(Nc4ccc(C(=O)O)c(N(C)C)c4)c3)c3ccccc23)cc(C(C)(C)C)cc1NS(C)(=O)=O [17(am), 4-[[4-[[4-[[5-tert-butyl-3-(methanesulfonamido)-2-methoxy-phenyl]carbamoylamino]-1-naphthyl]oxy]-2-pyridyl]amino]-2-(dimethylamino)benzoic acid]		103.4	90.5	32.5
47	29	82	COc1cc(Nc2cc(Oc3ccc(NC(=O)Nc4cc(C(C)(C)C)cc(NS(C)(=O)=O)c4OC)c4ccccc34)ccn2)ccc1C(=O)NC(CO)(CO)CO [17(cm), 4-((4-((4-(3-(5-(tert-Butyl)-2-methoxy-3-(methylsulfonamido)phenyl)ureido)naphthalen-1-yl)oxy)pyridin-2-yl)amino)-N-(1,3-dihydroxy-2-(hydroxymethyl)propan-2-yl)-2-methoxybenzamide]		95.9	77.0	14.5
162	195	400	COc1cc(Nc2cc(Oc3ccc(NC(=O)Nc4cc(C(C)(C)C)cc(NS(C)(=O)=O)c4OC)c4ccccc34)ccn2)ccc1S(=O)(=O)CCOCCOCCO [Example 40, N-(5-(tert-Butyl)-3-(3-(4-((2-((4-((2-(2-(2-hydroxyethoxy)ethoxy)ethyl)sulfonyl)-3-methoxyphenyl)amino)pyridin-4-yl)oxy)naphthalen-1-yl)ureido)-2-methoxyphenyl)-methanesulfonamide]		89.6	73.6	67.1
3	21	88	COc1cc(Nc2cc(Oc3ccc(NC(=O)Nc4cc(C(C)(C)C)cc(NS(C)(=O)=O)c4OC)c4ccccc34)ccn2)ccc1C(=O)NC[C@H](O)[C@H](O)[C@H](O)CO [Example 42, 4-((4-((4-(3-(5-(tert-Butyl)-2-methoxy-3-(methylsulfonamido)phenyl)ureido)naphthalen-1-yl)oxy)pyridin-2-yl)amino)-2-methoxy-N-((2S,3S4R)-2,3,4,5-tetrahydroxypentyl)benzamide]		96.6	91.7	21.3

Continued, compound first:

Structure (SMILES)	IC50 (p38 MAPKα (MAPK14)) [nM]	IC50 (c-Src) [nM]	IC50 (Syk) [nM]	inhibition at 5 µg/mL (mitosis in PBMCs) [%]	% Viability at 1 μg/mL (Jurkat cells) [%]	% Viability at 5 μg/mL (Jurkat cells) [%]	% Viability at 20 μg/mL (Jurkat cells) [%]
COc1cc(Nc2cc(Oc3ccc(NC(=O)Nc4cc(C(C)(C)C)cc(NS(C)(=O)=O)c4OC)c4ccccc34)ccn2)ccc1C(=O)NCCN(C)CCO [17(ac), 4-[[4-[[4-[[5-tert-butyl-3-(methanesulfonamido)-2-methoxy-phenyl]carbamoylamino]-1-naphthyl]oxy]-2-pyridyl]amino]-N-[2-[2-hydroxyethyl(methyl)amino]ethyl]-2-methoxy-benzamide]				85.8			
COc1cc(Nc2cc(Oc3ccc(NC(=O)Nc4cc(C(C)(C)C)cc(NS(C)(=O)=O)c4OC)c4ccccc34)ccn2)ccc1C(=O)NCCN1CCC(F)(F)CC1 [17(al), 4-[[4-[[4-[[5-tert-butyl-3-(methanesulfonamido)-2-methoxy-phenyl]carbamoylamino]-1-naphthyl]oxy]-2-pyridyl]amino]-N-[2-(4,4-difluoro-1-piperidyl)ethyl]-2-methoxy-benzamide]				21.2			
COc1c(NC(=O)Nc2ccc(Oc3ccnc(Nc4ccc(C(=O)NCCN5CCOCC5)cc4)c3)c3ccccc23)cc(C(C)(C)C)cc1NS(C)(=O)=O [17(u), 4-[[4-[[4-[[5-tert-butyl-3-(methanesulfonamido)-2-methoxy-phenyl]carbamoylamino]-1-naphthyl]oxy]-2-pyridyl]amino]-N-(2-morpholinoethyl)benzamide]				86.9			
COc1cc(Nc2cc(Oc3ccc(NC(=O)Nc4cc(C(C)(C)C)cc(NS(C)(=O)=O)c4OC)c4ccccc34)ccn2)cc(OC)c1C(=O)NCCN1CCN(C)CC1 [Example 22, 4-((4-((4-(3-(5-(tert-Butyl)-2-methoxy-3-(methylsulfonamido)phenyl)ureido)naphthalen-1-yl)oxy)pyridin-2-yl)amino)-2,6-dimethoxy-N-(2-(4-methylpiperazin-1-yl)ethyl)benzamide]	6	17	138		102.8	96.6	42.9
COc1cc(Nc2cc(Oc3ccc(NC(=O)Nc4cc(C(C)(C)C)cc(NS(C)(=O)=O)c4OC)c4ccccc34)ccn2)cc(OC)c1C(=O)NCCN(C)C [Example 39, 4-((4-((4-(3-(5-(tert-Butyl)-2-methoxy-3-(methylsulfonamido)phenyl)ureido)naphthalen-1-yl)oxy)pyridin-2-yl)amino)-N-(2-(dimethylamino)ethyl)-2,6-dimethoxybenzamide]	6	17	257		93.9	87.7	1.5
COc1cc(Nc2cc(Oc3ccc(NC(=O)Nc4cc(C(C)(C)C)cc(NC(=O)CO)c4OC)c4ccccc34)ccn2)ccc1C(=O)NCCN1CC[S+]([O-])CC1 [Example 41, 4-((4-((4-(3-(5-(tert-Butyl)-3-(2-hydroxyacetamido)-2-methoxyphenyl)ureido)naphthalen-1-yl)oxy)pyridin-2-yl)amino)-2-methoxy-N-(2-(1-oxidothiomorpholino)ethyl)benzamide]	31	13	325		90.5	67.3	55.3
COc1cc(Nc2cc(Oc3ccc(NC(=O)Nc4cc(C(C)(C)C)cc(NS(C)(=O)=O)c4OC)c4ccccc34)ccn2)ccc1S(=O)(=O)CC(CO)(CO)CO [Example 45, N-(5-(tert-Butyl)-3-(3-(4-((2-((4-((3-hydroxy-2,2-bis(hydroxymethyl)propyl)sulfonyl)-3-methoxyphenyl)amino)pyridin-4-yl)oxy)naphthalen-1-yl)ureido)-2-methoxyphenyl)-methanesulfonamide]	36	40	108		97.7	93.7	9.8
COc1cc(Nc2cc(Oc3ccc(NC(=O)Nc4cc(C(C)(C)C)cc(N(CCO)S(C)(=O)=O)c4OC)c4ccccc34)ccn2)ccc1C(=O)NCCN1CC[S+]([O-])CC1 [Example 48, 4-((4-((4-(3-(5-(tert-Butyl)-3-(N-(2-hydroxyethyl)methylsulfonamido)-2-methoxyphenyl)-ureido)naphthalen-1-yl)oxy)pyridin-2-yl)amino)-2-methoxy-N-(2-(1-oxidothiomorpholino)-ethyl)benzamide]	29	20	55		89.0	63.8	54.2
